Experimental data taken from the NIST ThermoML archive (doi:10.1021/je800203s).
± gives the expanded uncertainty stated by the source.

What was measured:
[1] = Crystal
[2] = molar heat capacity at constant pressure; conditions: 101.33 kPa
[3] = Molar enthalpy of transition or fusion; conditions: Crystal

COc1ccc(CC#N)cc1OC [(3,4-dimethoxyphenyl)acetonitrile]
Conditions | Molar enthalpy of transition or fusion [kcal/mol] | Triple point temperature [K]
[1] | – | 337.08 ± 0.15
[3] | 5.91 ± 0.0693 | –

[2]
Conditions | molar heat capacity at constant pressure [J/K/mol]
78.32 K, Crystal | 80.52 ± 1.6
80 K, Crystal | 82.15 ± 1.6
81.06 K, Crystal | 82.37 ± 1.6
84.38 K, Crystal | 84.71 ± 1.6
85 K, Crystal | 85.39 ± 1.6
87.3 K, Crystal | 87.42 ± 1.7
90 K, Crystal | 88.81 ± 1.7
90.17 K, Crystal | 89.84 ± 1.7
93.05 K, Crystal | 91.31 ± 1.8
95 K, Crystal | 92.41 ± 1.8
95.92 K, Crystal | 93.07 ± 1.8
98.78 K, Crystal | 94.96 ± 1.8
100 K, Crystal | 96.15 ± 1.8
102.8 K, Crystal | 97.78 ± 1.8
105 K, Crystal | 100 ± 1.9
106.79 K, Crystal | 101.8 ± 1.9
109.62 K, Crystal | 103.7 ± 1.9
110 K, Crystal | 104 ± 1.9
112.5 K, Crystal | 106.5 ± 1.9
115 K, Crystal | 108 ± 2
115.38 K, Crystal | 108.6 ± 2
118.25 K, Crystal | 111 ± 2
120 K, Crystal | 112.1 ± 2
121.12 K, Crystal | 113.3 ± 2
123.99 K, Crystal | 115.6 ± 2.1
125 K, Crystal | 116.3 ± 2.1
126.87 K, Crystal | 118 ± 2.1
129.71 K, Crystal | 120.3 ± 2.1
130 K, Crystal | 120.4 ± 2.1
132.55 K, Crystal | 122.1 ± 2.1
135 K, Crystal | 124.6 ± 2.2
135.4 K, Crystal | 124.9 ± 2.2
138.26 K, Crystal | 127.8 ± 2.2
140 K, Crystal | 128.8 ± 2.2
141.12 K, Crystal | 129.7 ± 2.2
143.94 K, Crystal | 131.8 ± 2.3
145 K, Crystal | 133 ± 2.3
146.78 K, Crystal | 134.2 ± 2.3
149.62 K, Crystal | 136.7 ± 2.3
150 K, Crystal | 137.1 ± 2.3
153.27 K, Crystal | 139.5 ± 2.3
155 K, Crystal | 141.2 ± 2.4
156.88 K, Crystal | 142.9 ± 2.4
159.69 K, Crystal | 144.6 ± 2.4
160 K, Crystal | 145.3 ± 2.4
162.54 K, Crystal | 146.5 ± 2.4
165 K, Crystal | 149.3 ± 2.5
165.37 K, Crystal | 148.6 ± 2.5
168.16 K, Crystal | 151.4 ± 2.5
170 K, Crystal | 153.3 ± 2.5
170.93 K, Crystal | 153.9 ± 2.5
173.78 K, Crystal | 156.3 ± 2.6
175 K, Crystal | 157.2 ± 2.6
176.63 K, Crystal | 157.8 ± 2.6
179.46 K, Crystal | 159.5 ± 2.6
180 K, Crystal | 161 ± 2.6
182.27 K, Crystal | 162.3 ± 2.6
185 K, Crystal | 164.7 ± 2.7
185.06 K, Crystal | 164.3 ± 2.7
187.83 K, Crystal | 167.4 ± 2.7
190 K, Crystal | 168.4 ± 2.7
190.65 K, Crystal | 168.8 ± 2.7
195 K, Crystal | 172 ± 2.8
196.37 K, Crystal | 174.3 ± 2.8
199.23 K, Crystal | 175.5 ± 2.8
200 K, Crystal | 175.6 ± 2.8
202.71 K, Crystal | 177.3 ± 2.8
205 K, Crystal | 179 ± 2.8
206.12 K, Crystal | 180.1 ± 2.9
208.91 K, Crystal | 182.6 ± 2.9
210 K, Crystal | 182.5 ± 2.9
211.79 K, Crystal | 184.7 ± 2.9
214.67 K, Crystal | 185.5 ± 2.9
215 K, Crystal | 185.8 ± 2.9
217.53 K, Crystal | 187.8 ± 2.9
220 K, Crystal | 189.1 ± 3
220.39 K, Crystal | 189.8 ± 3
223.24 K, Crystal | 192.6 ± 3
225 K, Crystal | 192.4 ± 3
226.07 K, Crystal | 194.1 ± 3
228.97 K, Crystal | 196 ± 3
230 K, Crystal | 195.6 ± 3
231.92 K, Crystal | 198.1 ± 3.1
234.86 K, Crystal | 200.2 ± 3.1
235 K, Crystal | 198.8 ± 3.1
237.82 K, Crystal | 201.4 ± 3.1
240 K, Crystal | 202 ± 3.1
240.78 K, Crystal | 203 ± 3.1
244.26 K, Crystal | 204.7 ± 3.2
245 K, Crystal | 205.2 ± 3.2
247.72 K, Crystal | 206 ± 3.2
250 K, Crystal | 208.4 ± 3.2
250.62 K, Crystal | 206.7 ± 3.2
253.5 K, Crystal | 208.8 ± 3.2
255 K, Crystal | 211.6 ± 3.2
256.38 K, Crystal | 210.7 ± 3.2
259.24 K, Crystal | 213.1 ± 3.3
260 K, Crystal | 214.9 ± 3.3
262.1 K, Crystal | 214.8 ± 3.3
264.94 K, Crystal | 216.4 ± 3.3
265 K, Crystal | 218.2 ± 3.3
267.89 K, Crystal | 218.3 ± 3.3
270 K, Crystal | 221.6 ± 3.4
270.93 K, Crystal | 221.1 ± 3.4
273.96 K, Crystal | 223.6 ± 3.4
275 K, Crystal | 225.2 ± 3.4
276.98 K, Crystal | 226.3 ± 3.4
279.99 K, Crystal | 228.9 ± 3.5
280 K, Crystal | 228.8 ± 3.5
283 K, Crystal | 231.4 ± 3.5
285 K, Crystal | 232.6 ± 3.5
285.98 K, Crystal | 234.1 ± 3.5
288.95 K, Crystal | 236.8 ± 3.6
290 K, Crystal | 236.6 ± 3.6
291.89 K, Crystal | 239.8 ± 3.6
294.78 K, Crystal | 242.2 ± 3.6
295 K, Crystal | 240.8 ± 3.6
297.68 K, Crystal | 245.2 ± 3.7
298.15 K, Crystal | 243.5 ± 3.6
300 K, Crystal | 245.2 ± 3.7
300.71 K, Crystal | 247.1 ± 3.7
303.68 K, Crystal | 250.1 ± 3.7
305 K, Crystal | 249.8 ± 3.7
306.62 K, Crystal | 252.2 ± 3.7
309.56 K, Crystal | 254.2 ± 3.8
310 K, Crystal | 254.8 ± 3.8
312.48 K, Crystal | 256 ± 3.8
315 K, Crystal | 260 ± 3.8
315.49 K, Crystal | 259.8 ± 3.8
318.59 K, Crystal | 261.9 ± 3.9
320 K, Crystal | 265.6 ± 3.9
321.66 K, Crystal | 267 ± 3.9
324.72 K, Crystal | 275 ± 4
327.73 K, Crystal | 284.8 ± 4.2
330.67 K, Crystal | 313 ± 4.5
340 K, Liquid | 350.5 ± 5
342.04 K, Liquid | 352 ± 5
345 K, Liquid | 353.2 ± 5
345.02 K, Liquid | 352.7 ± 5
348.08 K, Liquid | 354.6 ± 5
350 K, Liquid | 356 ± 5.1
351.14 K, Liquid | 356.8 ± 5.1
354.19 K, Liquid | 358.7 ± 5.1
355 K, Liquid | 358.7 ± 5.1
357.24 K, Liquid | 360.1 ± 5.1
360 K, Liquid | 361.4 ± 5.1
360.28 K, Liquid | 361.3 ± 5.1
363.32 K, Liquid | 362.6 ± 5.2
365 K, Liquid | 363.9 ± 5.2
366.35 K, Liquid | 364.4 ± 5.2
369.38 K, Liquid | 366.3 ± 5.2
370 K, Liquid | 366.3 ± 5.2
372.4 K, Liquid | 367.9 ± 5.2
375 K, Liquid | 368.7 ± 5.2
375.42 K, Liquid | 368.7 ± 5.2
378.43 K, Liquid | 370.1 ± 5.2
380 K, Liquid | 371 ± 5.3
381.44 K, Liquid | 371.6 ± 5.3
384.44 K, Liquid | 373 ± 5.3
385 K, Liquid | 373.3 ± 5.3
387.44 K, Liquid | 374.5 ± 5.3
390 K, Liquid | 375.7 ± 5.3
390.43 K, Liquid | 376.1 ± 5.3
393.41 K, Liquid | 377.4 ± 5.3
395 K, Liquid | 378.4 ± 5.4
396.39 K, Liquid | 379.4 ± 5.4
399.38 K, Liquid | 380.9 ± 5.4
400 K, Liquid | 381.5 ± 5.4
